Source: ChEMBL document CHEMBL4433241, “Potential of ROCK Inhibitors as Treatment for Cardiovascular Diseases, Cancer, and More” (ACS Med Chem Lett, 2019)

Molecular target: Rho-associated protein kinase 2 (Homo sapiens, UniProt O75116)
Experiment: Inhibition of ROCK2 (unknown origin) using FITC-AHA-AKRRRLSSLRA-OH substrate and ATP

Sequence of Rho-associated protein kinase 2 (O75116 whole entry): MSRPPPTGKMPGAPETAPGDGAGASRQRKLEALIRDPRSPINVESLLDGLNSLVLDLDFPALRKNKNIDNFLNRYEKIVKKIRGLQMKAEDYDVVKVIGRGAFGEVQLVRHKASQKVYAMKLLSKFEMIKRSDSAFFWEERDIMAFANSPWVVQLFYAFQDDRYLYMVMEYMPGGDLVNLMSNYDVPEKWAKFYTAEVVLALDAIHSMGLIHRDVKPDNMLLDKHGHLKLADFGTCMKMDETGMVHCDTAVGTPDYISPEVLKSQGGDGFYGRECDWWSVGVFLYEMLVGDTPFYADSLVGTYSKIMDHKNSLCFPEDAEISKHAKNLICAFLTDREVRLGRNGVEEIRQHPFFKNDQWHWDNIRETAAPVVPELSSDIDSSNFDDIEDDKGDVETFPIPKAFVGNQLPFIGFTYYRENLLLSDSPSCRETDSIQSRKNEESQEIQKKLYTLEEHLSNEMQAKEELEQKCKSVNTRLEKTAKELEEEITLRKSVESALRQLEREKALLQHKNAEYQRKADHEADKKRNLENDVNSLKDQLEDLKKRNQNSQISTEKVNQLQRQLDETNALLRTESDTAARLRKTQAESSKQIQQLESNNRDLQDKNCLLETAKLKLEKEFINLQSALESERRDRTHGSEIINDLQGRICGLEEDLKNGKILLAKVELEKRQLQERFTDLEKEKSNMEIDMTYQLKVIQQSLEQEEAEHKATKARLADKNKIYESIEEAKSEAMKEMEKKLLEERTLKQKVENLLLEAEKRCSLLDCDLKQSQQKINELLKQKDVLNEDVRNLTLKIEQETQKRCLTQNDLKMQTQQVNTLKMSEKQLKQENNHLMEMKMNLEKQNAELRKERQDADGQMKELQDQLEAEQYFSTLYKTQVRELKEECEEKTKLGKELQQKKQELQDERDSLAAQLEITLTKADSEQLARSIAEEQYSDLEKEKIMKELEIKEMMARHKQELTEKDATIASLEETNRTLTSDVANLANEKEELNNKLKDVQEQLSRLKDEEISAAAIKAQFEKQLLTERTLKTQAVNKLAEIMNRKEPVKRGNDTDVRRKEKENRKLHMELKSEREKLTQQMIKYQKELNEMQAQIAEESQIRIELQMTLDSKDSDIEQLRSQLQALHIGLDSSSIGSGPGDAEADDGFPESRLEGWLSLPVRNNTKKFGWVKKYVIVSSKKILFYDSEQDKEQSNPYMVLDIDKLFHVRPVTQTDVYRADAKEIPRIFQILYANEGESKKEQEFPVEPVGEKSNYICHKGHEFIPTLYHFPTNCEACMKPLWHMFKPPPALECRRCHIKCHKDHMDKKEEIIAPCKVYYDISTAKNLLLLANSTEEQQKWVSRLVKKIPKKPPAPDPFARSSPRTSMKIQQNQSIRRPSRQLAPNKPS

In the case of `COc1cnc(NC2CC3(C2)CC(Oc2ncccc2C(N)=O)C3)c2cc(Cl)ccc12` (stereo not given), the IC50 is reported as 15 nM.
`N#Cc1cnc(NC2CC3(C2)CC(Oc2ncccc2C(N)=O)C3)nc1` (stereo not given) showed an IC50 of 1510 nM.
Work on `NC(=O)c1cccnc1OC1CC2(CC(Nc3nc4c(Cl)cccc4s3)C2)C1` (stereo not given) yielded an IC50 of 76 nM.
`COc1ccc2ncnc(NC3CC4(C3)CC(Oc3ncccc3C(N)=O)C4)c2c1` (stereo not given) gave an IC50 of 62 nM.
`COc1ccc2c(NC3CC4(C3)CC(Oc3ncccc3C(N)=O)C4)nccc2c1` (stereo not given) showed an IC50 of 17 nM.
